{
  "source": "patent US20150344540A1",
  "about": "“NOVEL GLP-1 RECEPTOR AGONISTS WITH CHOLESTEROL EFFLUX ACTIVITY” (NOVO NORDISK A/S, priority 2012, published 2015)",
  "note": "Where a SMILES comes first, the peptide text is derived from it. [ ]: non-standard residue; d: D form. Aib = CC(C)(N)C(=O)O",
  "data": [
    {"test_system": "Mouse monocyte/macrophage cell line, RAW 264.7", "assay": "Cholesterol efflux assay (3H-cholesterol, macrophage cell line)", "format": "cell-based", "conditions": "RAW 264.7, 4 hrs incubation, 0.1% human serum albumin, ABCA1-mediated efflux", "units": {"4 h Cholesterol Efflux Emax": "%"}, "values": [
      {"molecule": "CC[C@H](C)[C@H](NC(=O)[C@H](Cc1ccccc1)NC(=O)[C@H](CCC(=O)O)NC(=O)[C@H](CCCCN)NC(=O)[C@@H](NC(=O)[C@H](C)NC(=O)[C@H](CCC(=O)O)NC(=O)CNC(=O)[C@H](CCC(=O)O)NC(=O)[C@H](CC(C)C)NC(=O)[C@H](Cc1ccc(O)cc1)NC(=O)[C@H](CO)NC(=O)[C@H](CO)NC(=O)[C@@H](NC(=O)[C@H](CC(=O)O)NC(=O)[C@H](CO)NC(=O)[C@@H](NC(=O)[C@H](Cc1ccccc1)NC(=O)[C@@H](NC(=O)CNC(=O)[C@H](CCC(=O)O)NC(=O)C(C)(C)NC(=O)[C@@H](N)Cc1c[nH]cn1)[C@@H](C)O)[C@@H](C)O)C(C)C)C(C)C)C(=O)N[C@@H](C)C(=O)N[C@@H](Cc1c[nH]c2ccccc12)C(=O)N[C@@H](CC(C)C)C(=O)N[C@H](C(=O)N[C@@H](CCC(=O)O)C(=O)N[C@@H](CCCCN)C(=O)N[C@@H](Cc1ccccc1)C(=O)N[C@@H](CCCCN)C(=O)N[C@@H](CCC(=O)O)C(=O)N[C@@H](Cc1ccccc1)C(=O)N[C@@H](Cc1ccccc1)C(N)=O)C(C)C", "note": "[Compound 93, [Aib8,Glu23,Val25,Glu34,Lys35,Phe36,Lys37]-GLP-1-(7-37)-peptidyl-Glu-Phe-Phe amide] (H-H[Aib]EGTFTSDVSSYLEGEAVKEFIAWLVEKFKEFF-NH2)", "4 h Cholesterol Efflux Emax": 113},
      {"molecule": "CC[C@H](C)[C@H](NC(=O)[C@H](Cc1ccccc1)NC(=O)[C@H](CCC(=O)O)NC(=O)[C@H](CCCCN)NC(=O)[C@@H](NC(=O)[C@H](C)NC(=O)[C@H](CCC(=O)O)NC(=O)[C@H](CCC(=O)O)NC(=O)[C@H](CCC(=O)O)NC(=O)[C@H](CC(C)C)NC(=O)[C@H](Cc1ccc(O)cc1)NC(=O)[C@H](CO)NC(=O)[C@H](CO)NC(=O)[C@@H](NC(=O)[C@H](CC(=O)O)NC(=O)[C@H](CO)NC(=O)[C@@H](NC(=O)[C@H](Cc1ccccc1)NC(=O)[C@@H](NC(=O)CNC(=O)[C@H](CCC(=O)O)NC(=O)C(C)(C)NC(=O)[C@@H](N)Cc1c[nH]cn1)[C@@H](C)O)[C@@H](C)O)C(C)C)C(C)C)C(=O)N[C@@H](C)C(=O)N[C@@H](Cc1c[nH]c2ccccc12)C(=O)N[C@@H](CC(C)C)C(=O)N[C@H](C(=O)N[C@@H](CCC(=O)O)C(=O)N[C@@H](CCCCN)C(=O)N[C@H](C(=O)N[C@@H](CCCCN)C(=O)N[C@@H](CCC(=O)O)C(=O)N[C@@H](CC(C)C)C(=O)N[C@@H](CC(C)C)C(N)=O)C(C)C)C(C)C", "note": "[Compound 109, [Aib8,Glu22,Glu23,Val25,Glu34,Lys35,Val36,Lys37]-GLP-1-(7-37)-peptidyl-Glu-Leu-Leu amide] (H-H[Aib]EGTFTSDVSSYLEEEAVKEFIAWLVEKVKELL-NH2)", "4 h Cholesterol Efflux Emax": 99},
      {"molecule": "CC[C@H](C)[C@H](NC(=O)[C@H](Cc1ccccc1)NC(=O)[C@H](CCC(=O)O)NC(=O)[C@H](CCCNC(=N)N)NC(=O)[C@@H](NC(=O)[C@H](C)NC(=O)[C@H](CCC(=O)O)NC(=O)[C@H](CCC(=O)O)NC(=O)[C@H](CCC(=O)O)NC(=O)[C@H](CCSC)NC(=O)[C@H](CCC(N)=O)NC(=O)[C@H](CCCCN)NC(=O)[C@H](CO)NC(=O)[C@H](CC(C)C)NC(=O)[C@H](CC(=O)O)NC(=O)[C@H](CO)NC(=O)[C@@H](NC(=O)[C@H](Cc1ccccc1)NC(=O)[C@@H](NC(=O)CNC(=O)[C@H](CCC(=O)O)NC(=O)C(C)(C)NC(=O)[C@@H](N)Cc1c[nH]cn1)[C@@H](C)O)[C@@H](C)O)C(C)C)C(=O)N[C@@H](CCC(=O)O)C(=O)N[C@@H](Cc1c[nH]c2ccccc12)C(=O)N[C@@H](CC(C)C)C(=O)N[C@@H](CCCCN)C(=O)N[C@@H](CC(N)=O)C(=O)N[C@@H](CCCCN)C(=O)NC(C)(C)C(=O)N[C@@H](CC(C)C)C(=O)N[C@@H](CCC(=O)O)C(=O)N[C@@H](Cc1ccccc1)C(=O)N[C@@H](CC(C)C)C(=O)N[C@@H](CCC(=O)O)C(=O)N[C@@H](CC(C)C)C(=O)N[C@@H](CC(C)C)C(N)=O", "note": "[Compound 29, [Aib2,Glu21,Lys29,Aib30,Leu31,Glu32,Phe33,Leu34,Glu35,Leu36,Leu371-Exendin-4-(1-37)-peptide amide]", "4 h Cholesterol Efflux Emax": 81},
      {"molecule": "CC[C@H](C)[C@H](NC(=O)[C@H](Cc1ccccc1)NC(=O)[C@H](CCC(N)=O)NC(=O)[C@H](CCCCN)NC(=O)[C@@H](NC(=O)[C@H](C)NC(=O)[C@H](CCC(N)=O)NC(=O)CNC(=O)[C@H](CCC(=O)O)NC(=O)[C@H](CC(C)C)NC(=O)[C@H](Cc1ccc(O)cc1)NC(=O)[C@H](CO)NC(=O)[C@H](CO)NC(=O)[C@@H](NC(=O)[C@H](CC(=O)O)NC(=O)[C@H](CO)NC(=O)[C@@H](NC(=O)[C@H](Cc1ccccc1)NC(=O)[C@@H](NC(=O)CNC(=O)[C@H](CCC(=O)O)NC(=O)C(C)(C)NC(=O)[C@@H](N)Cc1c[nH]cn1)[C@@H](C)O)[C@@H](C)O)C(C)C)C(C)C)C(=O)N[C@@H](C)C(=O)N[C@@H](Cc1c[nH]c2ccccc12)C(=O)N[C@@H](CC(C)C)C(=O)N[C@H](C(=O)N[C@@H](CC(N)=O)C(=O)N[C@@H](CCCCN)C(=O)NC(C)(C)C(=O)N[C@@H](C)C(=O)N[C@@H](CCC(=O)O)C(=O)N[C@@H](Cc1ccccc1)C(=O)N[C@@H](CC(C)C)C(N)=O)C(C)C", "note": "[Compound 74] (H-H[Aib]EGTFTSDVSSYLEGQAVKQFIAWLVNK[Aib]AEFL-NH2)", "4 h Cholesterol Efflux Emax": 91},
      {"molecule": "CC[C@H](C)[C@H](NC(=O)[C@H](Cc1ccccc1)NC(=O)[C@H](CCC(=O)O)NC(=O)[C@H](CCCNC(=N)N)NC(=O)[C@@H](NC(=O)[C@H](C)NC(=O)[C@H](CCC(=O)O)NC(=O)[C@H](CCC(=O)O)NC(=O)[C@H](CCC(=O)O)NC(=O)[C@H](CCSC)NC(=O)[C@H](CCC(N)=O)NC(=O)[C@H](CCCCN)NC(=O)[C@H](CO)NC(=O)[C@H](CC(C)C)NC(=O)[C@H](CC(=O)O)NC(=O)[C@H](CO)NC(=O)[C@@H](NC(=O)[C@H](Cc1ccccc1)NC(=O)[C@@H](NC(=O)CNC(=O)[C@H](CCC(=O)O)NC(=O)C(C)(C)NC(=O)[C@@H](N)Cc1c[nH]cn1)[C@@H](C)O)[C@@H](C)O)C(C)C)C(=O)N[C@@H](CCC(=O)O)C(=O)N[C@@H](Cc1c[nH]c2ccccc12)C(=O)N[C@@H](CC(C)C)C(=O)N[C@@H](CCCCN)C(=O)N[C@@H](CC(N)=O)C(=O)N[C@@H](CCCCN)C(=O)NCC(=O)N[C@@H](CC(C)C)C(=O)N[C@@H](CCC(=O)O)C(=O)N[C@@H](Cc1ccccc1)C(=O)N[C@@H](CC(C)C)C(=O)N[C@@H](CCC(=O)O)C(=O)N[C@@H](CC(C)C)C(=O)N[C@@H](CC(C)C)C(N)=O", "note": "[Compound 33, [Aib2,Glu21,Lys29,Leu31,Glu32,Phe33,Leu34,Glu35,Leu36,Leu371-Exendin-4-(1-37)-peptide amide] (H-H[Aib]EGTFTSDLSKQMEEEAVREFIEWLKNKGLEFLELL-NH2; N-terminus assumed)", "4 h Cholesterol Efflux Emax": 87},
      {"molecule": "CC[C@H](C)[C@H](NC(=O)[C@H](Cc1ccccc1)NC(=O)[C@H](CCC(=O)O)NC(=O)[C@H](CCCNC(=N)N)NC(=O)[C@@H](NC(=O)[C@H](C)NC(=O)[C@H](CCC(=O)O)NC(=O)[C@H](CCC(=O)O)NC(=O)[C@H](CCC(=O)O)NC(=O)[C@H](CCSC)NC(=O)[C@H](CCC(N)=O)NC(=O)[C@H](CCCCN)NC(=O)[C@H](CO)NC(=O)[C@H](CC(C)C)NC(=O)[C@H](CC(=O)O)NC(=O)[C@H](CO)NC(=O)[C@@H](NC(=O)[C@H](Cc1ccccc1)NC(=O)[C@@H](NC(=O)CNC(=O)[C@H](CCC(=O)O)NC(=O)C(C)(C)NC(=O)[C@@H](N)Cc1c[nH]cn1)[C@@H](C)O)[C@@H](C)O)C(C)C)C(=O)N[C@@H](CCC(=O)O)C(=O)N[C@@H](Cc1c[nH]c2ccccc12)C(=O)N[C@@H](CC(C)C)C(=O)N[C@@H](CCCCN)C(=O)N[C@@H](CC(N)=O)C(=O)N[C@@H](CCCCN)C(=O)NC(C)(C)C(=O)N[C@@H](CC(C)C)C(=O)N[C@@H](CO)C(=O)N[C@@H](Cc1ccccc1)C(=O)N[C@@H](CC(C)C)C(=O)N[C@@H](CCC(=O)O)C(=O)N[C@@H](CC(C)C)C(=O)N[C@@H](CC(C)C)C(N)=O", "note": "[Compound 36, [Aib2,Glu21,Lys29,Aib30,Leu31,Phe33,Leu34,Glu35,Leu36,Leu371-Exendin-4-(1-37)-peptide amide] (H-H[Aib]EGTFTSDLSKQMEEEAVREFIEWLKNK[Aib]LSFLELL-NH2; N-terminus assumed)", "4 h Cholesterol Efflux Emax": 95},
      {"molecule": "Ac-DWFKAFYDKVAEKFKEAF-NH2 (N-terminus and C-terminus assumed) [Compound L-4F, reference compound]", "4 h Cholesterol Efflux Emax": 108},
      {"molecule": "CC[C@H](C)[C@H](NC(=O)[C@H](Cc1ccccc1)NC(=O)[C@H](CCC(=O)O)NC(=O)[C@H](CCCCN)NC(=O)[C@@H](NC(=O)[C@H](CCCCN)NC(=O)[C@H](CCC(=O)O)NC(=O)CNC(=O)[C@H](CCC(=O)O)NC(=O)[C@H](CC(C)C)NC(=O)[C@H](Cc1ccc(O)cc1)NC(=O)[C@H](CO)NC(=O)[C@H](CO)NC(=O)[C@@H](NC(=O)[C@H](CC(=O)O)NC(=O)[C@H](CO)NC(=O)[C@@H](NC(=O)[C@H](Cc1ccccc1)NC(=O)[C@@H](NC(=O)CNC(=O)[C@H](CCC(=O)O)NC(=O)C(C)(C)NC(=O)[C@@H](N)Cc1c[nH]cn1)[C@@H](C)O)[C@@H](C)O)C(C)C)C(C)C)C(=O)N[C@@H](CCC(=O)O)C(=O)N[C@@H](Cc1c[nH]cn1)C(=O)N[C@@H](CC(C)C)C(=O)N[C@H](C(=O)N[C@@H](CCC(=O)O)C(=O)N[C@@H](CCCCN)C(=O)N[C@@H](Cc1ccccc1)C(=O)N[C@@H](CCCCN)C(=O)N[C@@H](CCC(=O)O)C(=O)N[C@@H](Cc1ccccc1)C(=O)N[C@@H](Cc1ccccc1)C(N)=O)C(C)C", "note": "[Compound 96, [Aib8,Glu23,Lys24,Val25,Glu30,His31,Glu34,Lys35,Phe36,Lys37]-GLP-1-(7-37)-peptidyl-Glu-Phe-Phe amide] (H-H[Aib]EGTFTSDVSSYLEGEKVKEFIEHLVEKFKEFF-NH2)", "4 h Cholesterol Efflux Emax": 123}
    ]}
  ]
}
